Laboratory results published in US10882866B1, “Spiro[3H-indole-3,2′-pyrrolidin]-2(1H)-one compounds and derivatives as MDM2-P53 inhibitors” (Boehringer Ingelheim International GmbH, priority 2015, dated 2021).

Experiments:
[1] = molecular target: GST-MDM2 protein (aa 23-117) / biotinylated p53 wt peptide (p53-MDM2 interaction) (Homo sapiens (Human), UniProt Q00987); experiment: Mdm2-p53 Inhibition AlphaScreen; assay type: binding; conditions: 20 nM GST-MDM2 (aa 23-117), 20 nM biotinylated p53 wt peptide
Protocol: Mdm2-p53 Inhibition AlphaScreen
15 μL of compound in 20% DMSO (serial pre-dilutions of compound are done in 100% DMSO) is pipetted to the wells of a white OptiPlate-96 (PerkinElmer). A mix consisting of 20 nM GST-MDM2 protein (aa 23-117) and 20 nM biotinylated p53 wt peptide (encompassing aa 16-27 of wt human p53, amino acid sequence […]-Ttds-Lys-Biotin, molecular weight 2132.56 g/mol) is prepared in assay buffer (50 mM Tris/HCl pH 7.2; 120 mM NaCl; 0.1% bovine serum albumin (BSA); 5 mM dithiothreitol (DTT); 1 mM ethylenediaminetetraacetic acid (EDTA); 0.01% Tween 20). 30 μL of the mix is added to the compound dilutions and incubated for 15 min at rt while gently shaking the plate at 300 rounds per minute (rpm). Subsequently, 15 μL of premixed AlphaLISA Glutathione Acceptor Beads and AlphaScreen Streptavidin Donor Beads from PerkinElmer (in assay buffer at a concentration of 10 μg/mL each) are added and the samples are incubated for 30 min at rt in the dark (shaking 300 rpm). Afterwards, the signal is measured in a PerkinElmer Envision HTS Multilabel Reader using the AlphaScreen protocol from PerkinElmer.
Each plate contains negative controls where biotinylated p53-peptide and GST-MDM2 are left out and replaced by assay buffer. Negative control values are entered as low basis value when using the software GraphPad Prism for calculations. […]

[2] = tested on: human prostate tumor xenograft models harboring p53 wild-type; conditions: cited from earlier work
[3] = tested on: human acute myeloid leukemia (AML) xenograft models harboring p53 wild-type; conditions: cited from earlier work

Chain of GST-MDM2 protein (aa 23-117) / biotinylated p53 wt peptide (p53-MDM2 interaction) (Q00987 23-117): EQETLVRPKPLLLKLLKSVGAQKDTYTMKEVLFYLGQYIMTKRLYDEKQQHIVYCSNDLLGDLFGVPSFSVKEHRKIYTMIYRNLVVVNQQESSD

IC50 [1] [nM] | SMILES | antiproliferative and proapoptotic activity [2] | antiproliferative and proapoptotic activity [3]
2 | COc1cc2c(cc1C(N)=O)nc1n2CC[C@H]2[C@@H]1[C@H](c1cccc(Cl)c1F)[C@]1(C(=O)Nc3cc(Cl)ccc31)N2CC1CC1 [Ib-234] | – | –
– | CCOc1cc(C(C)(C)C)ccc1C1=N[C@@](C)(c2ccc(Cl)cc2)[C@@](C)(c2ccc(Cl)cc2)N1C(=O)N1CCN(CCCS(C)(=O)=O)CC1 [RG7112] | antiproliferative and proapoptotic activity of RG7112 has been observed | antiproliferative and proapoptotic activity of RG7112 has been observed
